Measured values taken from PubChem BioAssay (NCI).
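Following 48 hours of exposure in 96-well plates, responses at five concentrations were used to interpolate endpoints linearly. Abbreviation: GI50, concentration required for 50% inhibition of growth. The concentration for full growth arrest is given as TGI.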

Assays:
Test in all cases: NCI-60 cell line screen, 48 h
SF-539 CNS = system: SF-539 CNS
NCI-H522 lung = system: NCI-H522 lung
OVCAR-8 ovarian = system: OVCAR-8 ovarian
ACHN renal = system: ACHN renal
HCC-2998 colon = system: HCC-2998 colon
MOLT-4 leukemia = system: MOLT-4 leukemia
U251 CNS = system: U251 CNS
HCT-116 colon = system: HCT-116 colon
COLO 205 colon = system: COLO 205 colon
M14 melanoma = system: M14 melanoma
SK-MEL-5 melanoma = system: SK-MEL-5 melanoma
SNB-75 CNS = system: SNB-75 CNS
SF-295 CNS = system: SF-295 CNS
T-47D breast = system: T-47D breast
DU-145 prostate = system: DU-145 prostate
HOP-92 NSCLC = system: HOP-92 NSCLC
UACC-257 melanoma = system: UACC-257 melanoma
A498 renal = system: A498 renal
UO-31 renal = system: UO-31 renal
HOP-62 NSCLC = system: HOP-62 NSCLC
SK-OV-3 ovarian = system: SK-OV-3 ovarian
SR leukemia = system: SR leukemia
OVCAR-3 ovarian = system: OVCAR-3 ovarian
HL-60(TB) leukemia = system: HL-60(TB) leukemia
IGROV1 ovarian = system: IGROV1 ovarian
SNB-19 CNS = system: SNB-19 CNS
BT-549 breast = system: BT-549 breast
OVCAR-4 ovarian = system: OVCAR-4 ovarian
UACC-62 melanoma = system: UACC-62 melanoma
RPMI-8226 leukemia = system: RPMI-8226 leukemia
EKVX NSCLC = system: EKVX NSCLC
NCI-H23 lung = system: NCI-H23 lung
RXF 393 renal = system: RXF 393 renal
MDA-MB-231 breast = system: MDA-MB-231 breast
NCI-H226 lung = system: NCI-H226 lung
HT29 colon = system: HT29 colon
SF-268 CNS = system: SF-268 CNS
MALME-3M melanoma = system: MALME-3M melanoma
SK-MEL-2 melanoma = system: SK-MEL-2 melanoma
SW-620 colon = system: SW-620 colon
MDA-MB-435 = system: MDA-MB-435
K-562 leukemia = system: K-562 leukemia
786-0 renal = system: 786-0 renal
NCI-H460 lung = system: NCI-H460 lung
CAKI-1 renal = system: CAKI-1 renal
HCT-15 colon = system: HCT-15 colon
SN12C renal = system: SN12C renal
A549 NSCLC = system: A549 NSCLC
HS 578T breast = system: HS 578T breast
NCI/ADR-RES ovarian = system: NCI/ADR-RES ovarian
CCRF-CEM leukemia = system: CCRF-CEM leukemia
PC-3 prostate = system: PC-3 prostate
SK-MEL-28 melanoma = system: SK-MEL-28 melanoma
TK-10 renal = system: TK-10 renal
OVCAR-5 ovarian = system: OVCAR-5 ovarian
KM12 colon = system: KM12 colon

Which results are given for `CCOC(=O)c1ccc(NC2=C(Cl)C(=O)c3nc(C)ccc3C2=O)cc1`?
GI50 (SF-539 CNS): 2.52 µM; TGI (SF-539 CNS): 6.72 µM; GI50 (NCI-H522 lung): 1.71 µM; TGI (NCI-H522 lung): 3.72 µM; GI50 (OVCAR-8 ovarian): 4.38 µM; TGI (OVCAR-8 ovarian): 18.4 µM; GI50 (ACHN renal): 1.81 µM; TGI (ACHN renal): 3.35 µM; GI50 (HCC-2998 colon): 3.63 µM; TGI (HCC-2998 colon): 13.8 µM; GI50 (MOLT-4 leukemia): 1.57 µM; TGI (MOLT-4 leukemia): 5.32 µM; GI50 (U251 CNS): 3.75 µM; TGI (U251 CNS): 16.1 µM; GI50 (HCT-116 colon): 1.87 µM; TGI (HCT-116 colon): 4.36 µM; GI50 (COLO 205 colon): 1.75 µM; TGI (COLO 205 colon): 3.58 µM; GI50 (M14 melanoma): 1.85 µM; TGI (M14 melanoma): 3.76 µM; GI50 (SK-MEL-5 melanoma): 2.21 µM; TGI (SK-MEL-5 melanoma): 5.63 µM; GI50 (SNB-75 CNS): 2.3 µM; TGI (SNB-75 CNS): 10.3 µM; GI50 (SF-295 CNS): 5.48 µM; TGI (SF-295 CNS): 19.1 µM; GI50 (T-47D breast): 2.1 µM; TGI (T-47D breast): 5.09 µM; GI50 (DU-145 prostate): 1.82 µM; TGI (DU-145 prostate): 3.4 µM; GI50 (HOP-92 NSCLC): 1.8 µM; TGI (HOP-92 NSCLC): 3.48 µM; GI50 (UACC-257 melanoma): 1.63 µM; TGI (UACC-257 melanoma): 3.12 µM; GI50 (A498 renal): 11.7 µM; TGI (A498 renal): 28.3 µM; GI50 (UO-31 renal): 1.54 µM; TGI (UO-31 renal): 3.01 µM; GI50 (HOP-62 NSCLC): 10.2 µM; TGI (HOP-62 NSCLC): 23.9 µM; GI50 (SK-OV-3 ovarian): 10.5 µM; TGI (SK-OV-3 ovarian): 23.9 µM; GI50 (SR leukemia): 0.783 µM; TGI (SR leukemia): 3.57 µM; GI50 (OVCAR-3 ovarian): 1.78 µM; TGI (OVCAR-3 ovarian): 3.22 µM; GI50 (HL-60(TB) leukemia): 1.1 µM; TGI (HL-60(TB) leukemia): 3.21 µM; GI50 (IGROV1 ovarian): 3.43 µM; TGI (IGROV1 ovarian): 11.3 µM; GI50 (SNB-19 CNS): 4.76 µM; TGI (SNB-19 CNS): 89.4 µM; GI50 (BT-549 breast): 2.06 µM; TGI (BT-549 breast): 5.1 µM; GI50 (OVCAR-4 ovarian): 1.67 µM; TGI (OVCAR-4 ovarian): 3.26 µM; GI50 (UACC-62 melanoma): 2.46 µM; TGI (UACC-62 melanoma): 11.2 µM; GI50 (RPMI-8226 leukemia): 2.16 µM; TGI (RPMI-8226 leukemia): 5.95 µM; GI50 (EKVX NSCLC): 2.53 µM; TGI (EKVX NSCLC): 7.55 µM; GI50 (NCI-H23 lung): 2.31 µM; TGI (NCI-H23 lung): 7.58 µM; GI50 (RXF 393 renal): 1.63 µM; TGI (RXF 393 renal): 3.02 µM; GI50 (MDA-MB-231 breast): 3.73 µM; TGI (MDA-MB-231 breast): 17.1 µM; GI50 (NCI-H226 lung): 3.43 µM; TGI (NCI-H226 lung): 17.5 µM; GI50 (HT29 colon): 2.18 µM; TGI (HT29 colon): 5.13 µM; GI50 (SF-268 CNS): 3.86 µM; TGI (SF-268 CNS): 17.1 µM; GI50 (MALME-3M melanoma): 1.83 µM; TGI (MALME-3M melanoma): 3.62 µM; GI50 (SK-MEL-2 melanoma): 2.89 µM; TGI (SK-MEL-2 melanoma): 9.46 µM; GI50 (SW-620 colon): 2.06 µM; TGI (SW-620 colon): 4.41 µM; GI50 (MDA-MB-435): 3.21 µM; TGI (MDA-MB-435): 10.8 µM; GI50 (K-562 leukemia): 0.371 µM; TGI (K-562 leukemia): 3.3 µM; GI50 (786-0 renal): 1.88 µM; TGI (786-0 renal): 3.93 µM; GI50 (NCI-H460 lung): 8.76 µM; TGI (NCI-H460 lung): 30.1 µM; GI50 (CAKI-1 renal): 1.53 µM; TGI (CAKI-1 renal): 2.99 µM; GI50 (HCT-15 colon): 1.57 µM; TGI (HCT-15 colon): 3.37 µM; GI50 (SN12C renal): 3.51 µM; TGI (SN12C renal): 20.2 µM; GI50 (A549 NSCLC): 19.4 µM; TGI (A549 NSCLC): 70.5 µM; GI50 (HS 578T breast): 2.55 µM; TGI (HS 578T breast): 7 µM; GI50 (NCI/ADR-RES ovarian): 2.57 µM; TGI (NCI/ADR-RES ovarian): 9.61 µM; GI50 (CCRF-CEM leukemia): 1.27 µM; TGI (CCRF-CEM leukemia): 4.88 µM; GI50 (PC-3 prostate): 3.31 µM; TGI (PC-3 prostate): 15.7 µM; GI50 (SK-MEL-28 melanoma): 2.47 µM; TGI (SK-MEL-28 melanoma): 6.02 µM; GI50 (TK-10 renal): 1.79 µM; TGI (TK-10 renal): 3.24 µM; GI50 (OVCAR-5 ovarian): 13.2 µM; TGI (OVCAR-5 ovarian): 33.7 µM; GI50 (KM12 colon): 3.37 µM; TGI (KM12 colon): 12.9 µM
